In patent US20210255193A1, “LYSINE REACTIVE PROBES AND USES THEREOF” (The Scripps Research Institute, priority 2017, published 2021):

Assays:
Assay in all cases: competitive isoTOP-ABPP
Format in all cases: binding
[1] = biological target: T1, POLR2L DNA-directed RNA polymerases I, II, and III subunit (Homo sapiens, UniProt P62875); settings: for isoTOP-ABPP ratio (R) at liganded lysine P62875_K67: 50 uM, in vitro, sol, 231
T1 construct: isoTOP-ABPP experiments performed in cell lysates (in vitro); endogenous in cells; host or cells: soluble proteome of human cancer cell lines (MDA-MB-231, Ramos, Jurkat)
Outline: (§1)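 Readout: isotopic light/heavy MS1 peak-area ratio (R, DMSO heavy over compound light), median across peptides sharing a modified lysine. Lysate received fragment (activated esters 50 μM, guanidinylating agents 100 μM final) or DMSO, then 0.1 mM STP-alkyne probe for 1 h at ambient temperature.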

[2] = biological target: T2, GLOD4 Glyoxalase domain-containing protein 4 (Homo sapiens, UniProt Q9HC38); settings: for isoTOP-ABPP ratio (R) at liganded lysine Q9HC38_K305: 50 uM, in vitro, sol, 231
T2 construct: endogenous in cells; host or cells: MDA-MB-231 (soluble fraction of lysate)
T2 sequence (Q9HC38 1-313): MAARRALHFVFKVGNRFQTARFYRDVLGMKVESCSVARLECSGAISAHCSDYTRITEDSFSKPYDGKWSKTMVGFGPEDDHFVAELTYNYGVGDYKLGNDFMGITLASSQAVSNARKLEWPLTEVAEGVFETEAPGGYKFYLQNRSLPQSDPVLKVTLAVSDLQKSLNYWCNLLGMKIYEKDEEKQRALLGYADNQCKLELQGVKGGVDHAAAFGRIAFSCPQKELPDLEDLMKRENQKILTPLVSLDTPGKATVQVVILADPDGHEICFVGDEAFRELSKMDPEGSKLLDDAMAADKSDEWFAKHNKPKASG
Outline: as §1

[3] = biological target: T3, G6PD Glucose-6-phosphate 1-dehydrogenase (Homo sapiens, UniProt P11413); settings: for isoTOP-ABPP ratio (R) at liganded lysine P11413_K171: 50 uM, in vitro, sol, 231
T3 construct: isoTOP-ABPP experiments performed in cell lysates (in vitro); endogenous in cells; host or cells: MDA-MB-231 soluble lysate
T3 sequence (P11413 whole entry): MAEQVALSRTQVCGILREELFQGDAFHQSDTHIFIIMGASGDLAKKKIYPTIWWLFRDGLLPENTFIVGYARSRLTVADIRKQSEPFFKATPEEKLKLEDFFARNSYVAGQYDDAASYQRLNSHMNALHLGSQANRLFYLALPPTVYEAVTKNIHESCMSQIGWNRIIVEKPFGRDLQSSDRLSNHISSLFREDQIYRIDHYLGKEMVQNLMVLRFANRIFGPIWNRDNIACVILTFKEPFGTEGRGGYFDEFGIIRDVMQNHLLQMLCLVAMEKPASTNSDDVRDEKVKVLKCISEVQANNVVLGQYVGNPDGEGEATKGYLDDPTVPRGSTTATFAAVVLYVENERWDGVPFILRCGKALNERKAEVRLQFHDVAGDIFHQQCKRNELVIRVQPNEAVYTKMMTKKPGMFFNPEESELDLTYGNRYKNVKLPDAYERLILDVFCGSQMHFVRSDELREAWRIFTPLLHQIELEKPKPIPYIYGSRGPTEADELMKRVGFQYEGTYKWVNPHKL
Outline: as §1

[4] = biological target: T4, GLUD1 Glutamate dehydrogenase 1, mitochondrial (Homo sapiens, UniProt P00367); settings: for isoTOP-ABPP ratio (R) at liganded lysine P00367_K480: 50 uM, in vitro, sol, 231; for isoTOP-ABPP ratio, lysine P00367_K480: possible other lysine P00367_K477
T4 construct: isoTOP-ABPP experiments performed in cell lysates (in vitro); endogenous in cells; host or cells: MDA-MB-231 soluble lysate
T4 sequence (P00367 54-558): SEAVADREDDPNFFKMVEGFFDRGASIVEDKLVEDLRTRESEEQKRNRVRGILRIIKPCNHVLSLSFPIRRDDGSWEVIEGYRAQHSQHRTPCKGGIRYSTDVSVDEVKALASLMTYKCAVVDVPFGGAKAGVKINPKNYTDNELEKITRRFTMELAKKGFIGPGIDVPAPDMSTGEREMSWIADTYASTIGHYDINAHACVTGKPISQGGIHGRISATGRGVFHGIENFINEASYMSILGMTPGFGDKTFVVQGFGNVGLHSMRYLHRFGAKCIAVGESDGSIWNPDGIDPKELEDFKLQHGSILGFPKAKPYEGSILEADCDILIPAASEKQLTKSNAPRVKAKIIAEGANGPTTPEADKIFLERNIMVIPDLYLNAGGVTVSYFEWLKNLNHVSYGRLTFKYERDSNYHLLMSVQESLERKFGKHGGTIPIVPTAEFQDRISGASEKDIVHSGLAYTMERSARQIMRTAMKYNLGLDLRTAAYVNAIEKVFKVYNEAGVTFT
Outline: as §1

[5] = biological target: T5, XRCC6 X-ray repair cross-complementing protein 6 (Homo sapiens, UniProt P12956); settings: for isoTOP-ABPP ratio (R) at liganded lysine P12956_K351: 50 uM, in vitro, sol, 231
T5 construct: isoTOP-ABPP experiments performed in cell lysates (in vitro); endogenous in cells; host or cells: soluble proteome of human cancer cell lines (MDA-MB-231; Ramos and Jurkat also prepared)
T5 sequence (P12956 2-609 limits assumed): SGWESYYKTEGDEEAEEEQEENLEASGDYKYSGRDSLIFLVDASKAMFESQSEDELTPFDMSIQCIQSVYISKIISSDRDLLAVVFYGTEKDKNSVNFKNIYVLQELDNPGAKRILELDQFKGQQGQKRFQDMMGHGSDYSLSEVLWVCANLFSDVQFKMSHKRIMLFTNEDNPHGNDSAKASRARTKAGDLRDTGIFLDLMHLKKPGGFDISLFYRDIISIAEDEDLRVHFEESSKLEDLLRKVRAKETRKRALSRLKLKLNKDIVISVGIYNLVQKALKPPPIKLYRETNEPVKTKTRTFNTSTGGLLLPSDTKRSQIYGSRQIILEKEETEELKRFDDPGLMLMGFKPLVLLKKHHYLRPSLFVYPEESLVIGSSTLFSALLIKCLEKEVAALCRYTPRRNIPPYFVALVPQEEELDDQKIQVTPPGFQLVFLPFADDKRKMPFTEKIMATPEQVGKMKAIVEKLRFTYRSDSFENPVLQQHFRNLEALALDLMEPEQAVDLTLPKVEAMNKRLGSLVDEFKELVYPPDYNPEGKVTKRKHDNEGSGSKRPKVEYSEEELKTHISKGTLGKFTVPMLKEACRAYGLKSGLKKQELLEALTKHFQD
T5 sequence (P13010 2-732 partner limits assumed): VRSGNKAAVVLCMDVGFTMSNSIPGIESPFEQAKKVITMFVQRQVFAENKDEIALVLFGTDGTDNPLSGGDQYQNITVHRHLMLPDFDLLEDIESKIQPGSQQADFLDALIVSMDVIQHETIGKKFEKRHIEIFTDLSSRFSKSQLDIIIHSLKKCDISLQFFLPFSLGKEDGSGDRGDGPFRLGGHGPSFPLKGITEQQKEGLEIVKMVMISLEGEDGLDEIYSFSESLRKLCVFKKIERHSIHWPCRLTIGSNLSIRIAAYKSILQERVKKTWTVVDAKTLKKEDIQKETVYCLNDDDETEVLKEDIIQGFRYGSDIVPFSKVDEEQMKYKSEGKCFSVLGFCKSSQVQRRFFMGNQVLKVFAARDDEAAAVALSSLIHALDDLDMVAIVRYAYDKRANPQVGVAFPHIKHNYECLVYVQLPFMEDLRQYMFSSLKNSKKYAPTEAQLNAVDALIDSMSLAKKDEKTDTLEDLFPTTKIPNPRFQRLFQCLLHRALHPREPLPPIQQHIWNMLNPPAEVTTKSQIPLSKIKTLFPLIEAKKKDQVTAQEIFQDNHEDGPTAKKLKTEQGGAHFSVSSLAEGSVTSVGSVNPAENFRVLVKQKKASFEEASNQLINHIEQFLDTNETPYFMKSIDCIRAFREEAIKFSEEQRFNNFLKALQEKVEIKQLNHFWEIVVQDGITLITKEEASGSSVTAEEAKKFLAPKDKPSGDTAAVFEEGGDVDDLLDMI
Outline: as §1

[6] = biological target: T6, GOLGB1 Golgin subfamily B member 1 (Homo sapiens, UniProt Q14789); settings: for isoTOP-ABPP ratio (R) at liganded lysine Q14789_K103: 50 uM, in vitro, sol, 231
T6 construct: isoTOP-ABPP experiments performed in cell lysates (in vitro); endogenous in cells; host or cells: soluble proteome of human cancer cell lines (MDA-MB-231, Ramos, Jurkat)
Outline: as §1

For O=C(Oc1ccc([N+](=O)[O-])cc1[N+](=O)[O-])c1ccc2ccccc2n1 [fragment 35, 2,4-Dinitrophenyl quinoline-2-carboxylate], the “isoTOP-ABPP ratio (R) at liganded lysine P62875_K67” value [1] was 0.9, the “isoTOP-ABPP ratio (R) at liganded lysine Q9HC38_K305” value [2] was 0.4 and the “isoTOP-ABPP ratio (R) at liganded lysine P11413_K171” value [3] was 1.7. The “isoTOP-ABPP ratio (R) at liganded lysine P00367_K480” value [4] was 1.8, the “isoTOP-ABPP ratio (R) at liganded lysine P12956_K351” value [5] was 1.5 and the “isoTOP-ABPP ratio (R) at liganded lysine Q14789_K103” value [6] was 0.9.

For O=C(Oc1ccc([N+](=O)[O-])cc1[N+](=O)[O-])c1ccc(-c2ccccc2)cc1 [fragment 37, 2,4-Dinitrophenyl [1,1′-biphenyl]-4-carboxylate], the “isoTOP-ABPP ratio (R) at liganded lysine P62875_K67” value [1] was 0.9, the “isoTOP-ABPP ratio (R) at liganded lysine Q9HC38_K305” value [2] was 0.6 and the “isoTOP-ABPP ratio (R) at liganded lysine P11413_K171” value [3] was 0.9. For the same compound, the “isoTOP-ABPP ratio (R) at liganded lysine P00367_K480” value [4] was 1.1, the “isoTOP-ABPP ratio (R) at liganded lysine P12956_K351” value [5] was 1.3 and the “isoTOP-ABPP ratio (R) at liganded lysine Q14789_K103” value [6] was 0.9.

For O=C(Oc1ccc([N+](=O)[O-])cc1[N+](=O)[O-])c1ccc(Oc2ccccc2)cc1 [fragment 39, 2,4-Dinitrophenyl 4-phenoxybenzoate], the “isoTOP-ABPP ratio (R) at liganded lysine P62875_K67” value [1] was 0.9, the “isoTOP-ABPP ratio (R) at liganded lysine Q9HC38_K305” value [2] was 0.8 and the “isoTOP-ABPP ratio (R) at liganded lysine P11413_K171” value [3] was 1.1. The “isoTOP-ABPP ratio (R) at liganded lysine P00367_K480” value [4] was 1.0, the “isoTOP-ABPP ratio (R) at liganded lysine P12956_K351” value [5] was 1.6 and the “isoTOP-ABPP ratio (R) at liganded lysine Q14789_K103” value [6] was 0.9.

With O=C(Oc1ccc([N+](=O)[O-])cc1[N+](=O)[O-])c1ccccc1Nc1cccc(C(F)(F)F)c1 [fragment 40, 2,4-Dinitrophenyl 2-((3-(trifluoromethyl)phenyl)amino)benzoate] the “isoTOP-ABPP ratio (R) at liganded lysine P62875_K67” value [1] was 1.0, the “isoTOP-ABPP ratio (R) at liganded lysine Q9HC38_K305” value [2] was 0.8 and the “isoTOP-ABPP ratio (R) at liganded lysine P11413_K171” value [3] was 1.9. For the same compound, the “isoTOP-ABPP ratio (R) at liganded lysine P00367_K480” value [4] was 1.2, the “isoTOP-ABPP ratio (R) at liganded lysine P12956_K351” value [5] was 1.0 and the “isoTOP-ABPP ratio (R) at liganded lysine Q14789_K103” value [6] was 0.9.

In the case of CC(C)(C)OC(=O)NCCCC(=O)Oc1ccc([N+](=O)[O-])cc1[N+](=O)[O-] [fragment 41, 2,4-Dinitrophenyl 4-((tert-butoxycarbonyl)amino)butanoate], the “isoTOP-ABPP ratio (R) at liganded lysine P62875_K67” value [1] is reported as 2.6, the “isoTOP-ABPP ratio (R) at liganded lysine Q9HC38_K305” value [2] is reported as 20.0 and the “isoTOP-ABPP ratio (R) at liganded lysine P11413_K171” value [3] is reported as 1.0. For the same compound, the “isoTOP-ABPP ratio (R) at liganded lysine P00367_K480” value [4] was 3.7, the “isoTOP-ABPP ratio (R) at liganded lysine P12956_K351” value [5] was 1.6 and the “isoTOP-ABPP ratio (R) at liganded lysine Q14789_K103” value [6] was 1.1.

For O=C(Oc1ccc([N+](=O)[O-])cc1[N+](=O)[O-])C(c1ccccc1)(c1ccccc1)c1ccccc1 [fragment 42, 2,4-Dinitrophenyl 2,2,2-triphenylacetate], the “isoTOP-ABPP ratio (R) at liganded lysine P62875_K67” value [1] was 1.0, the “isoTOP-ABPP ratio (R) at liganded lysine Q9HC38_K305” value [2] was 0.9 and the “isoTOP-ABPP ratio (R) at liganded lysine P11413_K171” value [3] was 0.9. The “isoTOP-ABPP ratio (R) at liganded lysine P00367_K480” value [4] was 1.1, the “isoTOP-ABPP ratio (R) at liganded lysine P12956_K351” value [5] was 1.0 and the “isoTOP-ABPP ratio (R) at liganded lysine Q14789_K103” value [6] was 0.9.

N#Cc1ccc(C(=O)Oc2ccc([N+](=O)[O-])cc2[N+](=O)[O-])cc1 [fragment 44, 2,4-Dinitrophenyl 4-cyanobenzoate] was tested, and the “isoTOP-ABPP ratio, lysine P62875_K67” value ([1]; 50 uM_231_sol_in vitro) was 1.0, the “isoTOP-ABPP ratio, lysine Q9HC38_K305” value ([2]; 50 uM_231_sol_in vitro) was 0.5 and the “isoTOP-ABPP ratio, lysine P11413_K171” value ([3]; 50 uM_231_sol_in vitro) was 1.3. The “isoTOP-ABPP ratio, lysine P00367_K480” value ([4]; 50 uM_231_sol_in vitro) was 1.2, the “isoTOP-ABPP ratio, lysine P12956_K351” value ([5]; 50 uM_231_sol_in vitro) was 1.1 and the “isoTOP-ABPP ratio, lysine Q14789_K103” value ([6]; 50 uM_231_sol_in vitro) was 0.9.

O=C(CCc1ccc2c(c1)OCO2)Oc1ccc([N+](=O)[O-])cc1[N+](=O)[O-] [fragment 45, 2,4-Dinitrophenyl 3-(benzo[d][1,3]dioxol-5-yl)propanoate] was tested, and the “isoTOP-ABPP ratio, lysine P62875_K67” value ([1]; 50 uM_231_sol_in vitro) was 2.8, the “isoTOP-ABPP ratio, lysine Q9HC38_K305” value ([2]; 50 uM_231_sol_in vitro) was 0.7 and the “isoTOP-ABPP ratio, lysine P11413_K171” value ([3]; 50 uM_231_sol_in vitro) was 1.1. For the same compound, the “isoTOP-ABPP ratio, lysine P00367_K480” value ([4]; 50 uM_231_sol_in vitro) was 2.8, the “isoTOP-ABPP ratio, lysine P12956_K351” value ([5]; 50 uM_231_sol_in vitro) was 1.9 and the “isoTOP-ABPP ratio, lysine Q14789_K103” value ([6]; 50 uM_231_sol_in vitro) was 1.0.

CC(C)(C)OC(=O)N=C(NC(=O)OC(C)(C)C)n1cccn1 [fragment 50, reference compound] was tested, and the “isoTOP-ABPP ratio, lysine P62875_K67” value ([1]; 100 uM_231_sol_in vitro) was 1.0, the “isoTOP-ABPP ratio, lysine Q9HC38_K305” value ([2]; 100 uM_231_sol_in vitro) was 1.1 and the “isoTOP-ABPP ratio, lysine P11413_K171” value ([3]; 100 uM_231_sol_in vitro) was 1.1. The “isoTOP-ABPP ratio, lysine P00367_K480” value ([4]; 100 uM_231_sol_in vitro) was 1.3, the “isoTOP-ABPP ratio, lysine P12956_K351” value ([5]; 100 uM_231_sol_in vitro) was 6.0 and the “isoTOP-ABPP ratio, lysine Q14789_K103” value ([6]; 100 uM_231_sol_in vitro) was 1.4.

NC(=O)c1cc(C(F)(F)F)cc(C(F)(F)F)c1 [fragment 51, reference compound] was tested, and the “isoTOP-ABPP ratio, lysine P62875_K67” value ([1]; 50 uM_231_sol_in vitro) was 1.0, the “isoTOP-ABPP ratio, lysine Q9HC38_K305” value ([2]; 50 uM_231_sol_in vitro) was 0.9 and the “isoTOP-ABPP ratio, lysine P11413_K171” value ([3]; 50 uM_231_sol_in vitro) was 0.9. The “isoTOP-ABPP ratio, lysine P00367_K480” value ([4]; 50 uM_231_sol_in vitro) was 1.5, the “isoTOP-ABPP ratio, lysine P12956_K351” value ([5]; 50 uM_231_sol_in vitro) was 0.8 and the “isoTOP-ABPP ratio, lysine Q14789_K103” value ([6]; 50 uM_231_sol_in vitro) was 0.9.
